In paper PMC6642186, “Molecular mechanism of setron-mediated inhibition of full-length 5-HT3A receptor” (Nature Communications, 2019):
Changes are numbered by the printed parent chain. Values belong to the compound of their own block, whether it stands above or below them.

Assays:
5-HT3AR W156Y mutant = biological target: T1, 5-HT3AR W156Y mutant (Mus musculus, UniProt P23979, W183Y); test: Serotonin dose response by TEVC recordings in oocytes; format: cell-based
T1 construct: Full-length 5-HT3AR messenger RNA (mRNA) was injected into oocytes; expressed in transfected cells; host or cells: Xenopus laevis oocytes (mRNA injection, pTLN vector)
T1 sequence (P23979 24-483 isoform P23979-2 W183Y): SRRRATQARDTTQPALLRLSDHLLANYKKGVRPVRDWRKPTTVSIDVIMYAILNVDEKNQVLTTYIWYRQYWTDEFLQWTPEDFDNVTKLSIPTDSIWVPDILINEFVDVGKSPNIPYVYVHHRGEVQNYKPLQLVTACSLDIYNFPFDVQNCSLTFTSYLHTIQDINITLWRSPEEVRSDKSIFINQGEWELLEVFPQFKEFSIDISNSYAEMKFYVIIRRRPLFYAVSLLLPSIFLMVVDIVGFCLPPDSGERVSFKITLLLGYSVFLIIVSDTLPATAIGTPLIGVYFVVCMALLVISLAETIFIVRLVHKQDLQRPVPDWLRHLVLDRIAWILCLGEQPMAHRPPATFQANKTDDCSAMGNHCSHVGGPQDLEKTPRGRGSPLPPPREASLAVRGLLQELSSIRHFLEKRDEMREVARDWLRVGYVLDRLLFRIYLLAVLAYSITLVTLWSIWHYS
Description: (§1) Data are shown as mean ± s.d. (n is indicated within parentheses). Significance at p = 0.001 (***) and […] calculated by two-sample t test for WT and mutants. Source data are provided as a Source Data file
(§2) The gene encoding mouse 5-HT3AR (purchased from GenScript) was inserted into a Xenopus laevis expression vector (pTLN) using cloning primers shown in Supplementary Table 1. DNA linearization was carried out with the Mlu1 restriction enzyme overnight at 37 °C. mRNA synthesis was done using the mMessage mMachine Kit (Ambion) as per the manufacturer’s instructions and purification was done with RNAeasy Kit (Qiagen). mRNA for studied mutants was prepared in the same way. Three to ten nanograms of mRNA was injected into X. laevis oocytes (stages V–VI) and experiments were performed 2–5 days after injection. For control experiments to verify that no endogenous currents were present, oocytes were injected with the same volume of water. W.F. Boron kindly provided oocytes used in this study. Female X. laevis were purchased from Nasco. Animal experimental procedures were approved by Institutional Animal Care and Use Committee (IACUC) of Case Western Reserve University. […] Oocytes were clamped at a holding potential of −60 mV. Solutions were changed using a syringe pump perfusion system flowing at a rate of 6 ml/min.

5-HT3AR W63Y mutant = biological target: T2, 5-HT3AR W63Y mutant (Mus musculus, UniProt P23979, W90Y); test: as above; format: cell-based
T2 construct: Full-length 5-HT3AR messenger RNA (mRNA) was injected into oocytes; expressed in transfected cells; host or cells: Xenopus laevis oocytes (mRNA injection, pTLN vector)
T2 sequence (P23979 24-483 isoform P23979-2 W90Y): T1 sequence (P23979 24-483 isoform P23979-2 W183Y) with W67Y, Y160W
Description: as §1, §2

5-HT3AR Y126F mutant = biological target: T3, 5-HT3AR Y126F mutant (Mus musculus, UniProt P23979, Y153F); test: as above; format: cell-based
T3 construct: Full-length 5-HT3AR messenger RNA (mRNA) was injected into oocytes; expressed in transfected cells; host or cells: Xenopus laevis oocytes (mRNA injection, pTLN vector)
T3 sequence (P23979 24-483 isoform P23979-2 Y153F): T1 sequence (P23979 24-483 isoform P23979-2 W183Y) with Y130F, Y160W
Description: as §1, §2

5-HT3AR R65A mutant = biological target: T4, 5-HT3AR R65A mutant (Mus musculus, UniProt P23979, R92A); test: as above; format: cell-based
T4 construct: Full-length 5-HT3AR messenger RNA (mRNA) was injected into oocytes; expressed in transfected cells; host or cells: Xenopus laevis oocytes (mRNA injection, pTLN vector)
T4 sequence (P23979 24-483 isoform P23979-2 R92A): T1 sequence (P23979 24-483 isoform P23979-2 W183Y) with R69A, Y160W
Description: as §1, §2

wild-type (WT) 5-HT3AR = biological target: T5, wild-type (WT) 5-HT3AR (Mus musculus, UniProt P23979); test: as above; format: cell-based; settings: for Normalized current: wt
T5 construct: Full-length 5-HT3AR messenger RNA (mRNA) was injected into oocytes; expressed in transfected cells; host or cells: Xenopus laevis oocytes (mRNA injection, pTLN vector)
T5 sequence (P23979 24-483 isoform P23979-2 limits assumed): T1 sequence (P23979 24-483 isoform P23979-2 W183Y) with Y160W
Description: as §1, §2

5-HT3AR Y207F mutant = biological target: T6, 5-HT3AR Y207F mutant (Mus musculus, UniProt P23979, Y234F); test: as above; format: cell-based
T6 construct: Full-length 5-HT3AR messenger RNA (mRNA) was injected into oocytes; expressed in transfected cells; host or cells: Xenopus laevis oocytes (mRNA injection, pTLN vector)
T6 sequence (P23979 24-483 isoform P23979-2 Y234F): T1 sequence (P23979 24-483 isoform P23979-2 W183Y) with Y160W, Y211F
Description: as §1, §2

α7nAChR = test system: α7nAChR; design: method as in PMID 11212100, PMID 15781147; settings: cited from earlier work
[1] = test system: human 5-HT3AR with mutations at the Arg65 position; design: method as in PMID 28137449; settings: cited from earlier work
[2] = tertiary ammonium in the bicyclic ring; no reference given; cited from earlier work
[3] = serotonin dose response, TEVC at −60 mV, oocytes

Normalized current (5-HT3AR W156Y mutant; 20 microM serotonin): 0.00976 | Normalized current (5-HT3AR W156Y mutant; 50 microM serotonin): 0.04708 | Normalized current (5-HT3AR W156Y mutant; 100 microM serotonin): 0.2083 | Normalized current (5-HT3AR W156Y mutant; 200 microM serotonin): 0.2793 | Normalized current (5-HT3AR W156Y mutant; 500 microM serotonin): 0.6574 | Normalized current (5-HT3AR W156Y mutant; 1000 microM serotonin): 0.8828 | Normalized current (5-HT3AR W156Y mutant; 2000 microM serotonin): 1 | Hill coefficient (nH) (5-HT3AR W156Y mutant; [3]): 1.58 ± 0.24 | Normalized current (5-HT3AR W63Y mutant; 2 microM serotonin): 0.00868 | Normalized current (5-HT3AR W63Y mutant; 5 microM serotonin): 0.07991 | Normalized current (5-HT3AR W63Y mutant; 10 microM serotonin): 0.4765 | Normalized current (5-HT3AR W63Y mutant; 15 microM serotonin): 0.7556 | Normalized current (5-HT3AR W63Y mutant; 30 microM serotonin): 0.8311 | Normalized current (5-HT3AR W63Y mutant; 100 microM serotonin): 1 | Hill coefficient (nH) (5-HT3AR W63Y mutant; [3]): 3.1 ± 0.72 | Normalized current (5-HT3AR Y126F mutant; 10 microM serotonin): 0.04616 | Normalized current (5-HT3AR Y126F mutant; 30 microM serotonin): 0.2137 | Normalized current (5-HT3AR Y126F mutant; 50 microM serotonin): 0.6516 | Normalized current (5-HT3AR Y126F mutant; 100 microM serotonin): 0.7792 | Normalized current (5-HT3AR Y126F mutant; 250 microM serotonin): 0.904 | Normalized current (5-HT3AR Y126F mutant; 500 microM serotonin): 0.985 | Normalized current (5-HT3AR Y126F mutant; 1000 microM serotonin): 1 | Hill coefficient (nH) (5-HT3AR Y126F mutant; [3]): 2.6 ± 0.71 | Normalized current (5-HT3AR R65A mutant; 2.5 microM serotonin): 0.00482 | Normalized current (5-HT3AR R65A mutant; 5 microM serotonin): 0.04808 | Normalized current (5-HT3AR R65A mutant; 15 microM serotonin): 0.6252 | Normalized current (5-HT3AR R65A mutant; 20 microM serotonin): 0.7837 | Normalized current (5-HT3AR R65A mutant; 100 microM serotonin): 1 | Hill coefficient (nH) (5-HT3AR R65A mutant; [3]): 4.4 ± 0.59 | Hill coefficient (nH) (wild-type (WT) 5-HT3AR; serotonin dose response, TEVC at −60 mV, oocytes, WT): 2.3 ± 0.17 | Normalized current (wild-type (WT) 5-HT3AR; 1 microM serotonin): 0.091 | Normalized current (wild-type (WT) 5-HT3AR; 2 microM serotonin): 0.3528 | Normalized current (wild-type (WT) 5-HT3AR; 3 microM serotonin): 0.5303 | Normalized current (wild-type (WT) 5-HT3AR; 5 microM serotonin): 0.8338 | Normalized current (wild-type (WT) 5-HT3AR; 10 microM serotonin): 0.9464 | Normalized current (wild-type (WT) 5-HT3AR; 30 microM serotonin): 1 | Normalized current (5-HT3AR Y207F mutant; 5 microM serotonin): 0.02946 | Normalized current (5-HT3AR Y207F mutant; 10 microM serotonin): 0.2522 | Normalized current (5-HT3AR Y207F mutant; 30 microM serotonin): 0.6081 | Normalized current (5-HT3AR Y207F mutant; 50 microM serotonin): 0.8641 | Normalized current (5-HT3AR Y207F mutant; 100 microM serotonin): 0.8795 | Normalized current (5-HT3AR Y207F mutant; 250 microM serotonin): 0.9933 | Normalized current (5-HT3AR Y207F mutant; 500 microM serotonin): 0.9971 | Normalized current (5-HT3AR Y207F mutant; 1000 microM serotonin): 1 | Hill coefficient (nH) (5-HT3AR Y207F mutant; [3]): 1.9 ± 0.27
Structure (SMILES): NCCc1c[nH]c2ccc(O)cc12 [serotonin]

Structure (SMILES): CN1[C@@H]2CC[C@H]1C[C@@H](OC(=O)c1c[nH]c3ccccc13)C2 [tropisetron]
binding to α7nAChR (α7nAChR): bind to α7nAChR leading to channel activation | effect of mutations at the Arg65 position on binding [1]: only reduced

Structure (SMILES): CN1C2CCCC1CC(NC(=O)c1nn(C)c3ccccc13)C2 (stereo not shown) [granisetron]
binding to α7nAChR (α7nAChR): does not bind | pKa [2]: 9.6
